Results reported in patent US20230159527A1, “COMPOUNDS AS BCL-2 INHIBITORS” (Fochon Pharmaceuticals, Ltd., priority 2020, published 2023).
Read-outs that look alike come from different tables or passages of the source.

Experiments:
Format in all cases: cell-based
RS4;11-BCL-2 F104L cells = experiment: Cell proliferation assay, engineered RS4;11 cells stably overexpressing BCL-2 F104L (MTS, 168 h); settings: Homo sapiens, read-out: RS4, 11 BCL2-F104L
Summary of the method: (§1)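 Proliferation read-out: MTS for exactly 2 h, then absorbance at 490 nm, with IC50 derived from the fit. Before this, engineered RS4;11 lines (BCL-2 G101V, F104L; 5000 cells/well) were exposed 168 h at 37 °C to serially diluted compound, final 1.4–10000 nM.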

Toledo cells = experiment: Cell proliferation assay, Toledo cells (MTS, 72 h); settings: Toledo cells, MTS, read-out: Toledo IC50
Summary of the method: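 IC50 was derived from 490 nm absorbance after a 2 h MTS step. Before that, compounds at 1.5–10000 nM final (nine points) acted on Toledo cells for 72 h at 37 °C, 5% CO2. Cells were seeded at 30000/well in 10% FBS RPMI-1640 and rested 4 h before dosing.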

RS4;11-BCL-2 G101V cells = experiment: Cell proliferation assay, engineered RS4;11 cells stably overexpressing BCL-2 G101V (MTS, 168 h); settings: read-out: RS4, 11 BCL2- G101V
Summary of the method: as §1

| Compound | IC50 (RS4;11-BCL-2 F104L cells) | IC50 (Toledo cells; Homo sapiens) | IC50 (RS4;11-BCL-2 G101V cells; Homo sapiens, RS4-11, 168 h) | IC50 (Toledo cells) | IC50 (RS4;11-BCL-2 G101V cells) |
| --- | --- | --- | --- | --- | --- |
| COCCOc1nc2[nH]cc(F)c2cc1Oc1cc(N2CCC3(CC2)CN([C@H]2CCC[C@H]2c2ccccc2C(C)C)C3)ccc1C(=O)NS(=O)(=O)c1cc2c(c([N+](=O)[O-])c1)N[C@@H]([C@H]1CC[C@](C)(O)CC1)CO2 (single isomer, unassigned) [Example D-95, 2-((3-fluoro-6-(2-methoxyethoxy)-1H-pyrrolo[2,3-b]pyridin-5-yl)oxy)-N-(((S)-3-((1r,4S)-4-hydroxy-4-methylcyclohexyl)-5-nitro-3,4-dihydro-2H-benzo[b][1,4]oxazin-7-yl)sulfonyl)-4-(2-((1S,2S or 1R,2R)-2-(2-isopropylphenyl)cyclopentyl)-2,7-diazaspiro[3.5]nonan-7-yl)benzamide] | 8 nM | 1 nM | 3 nM | – | – |
| CCOc1nc2[nH]cc(F)c2cc1Oc1cc(N2CCC3(CC2)CN([C@H]2CCC[C@H]2c2ccccc2C(C)C)C3)ccc1C(=O)NS(=O)(=O)c1cnc(NC[C@H]2CC[C@](C)(O)CC2)c([N+](=O)[O-])c1 (relative stereo) [Example A-153, 2-((6-ethoxy-3-fluoro-1H-pyrrolo[2,3-b]pyridin-5-yl)oxy)-N-((6-(((1r,4r)-4-hydroxy-4-methylcyclohexyl)methyl)amino)-5-nitropyridin-3-yl) sulfonyl)-4-(2-((1S,2S or 1R,2R)-2-(2-isopropylphenyl)cyclo-pentyl)-2,7-diazaspiro[3.5]nonan-7-yl) benzamide] | 6 nM | 1 nM | 25 nM | – | – |
| CC(C)c1ccccc1[C@@H]1CCC[C@@H]1N1CC2(CCN(c3ccc(C(=O)NS(=O)(=O)c4cc5c(c([N+](=O)[O-])c4)N[C@@H]([C@H]4CC[C@](C)(O)CC4)CO5)c(Oc4cc5c(F)c[nH]c5nc4F)c3)CC2)C1 (single isomer, unassigned) [Example D-96, 2-((3,6-difluoro-1H-pyrrolo[2,3-b]pyridin-5-yl)oxy)-N-(((S)-3-((1r,4S)-4-hydroxy-4-methylcyclohexyl)-5-nitro-3,4-dihydro-2H-benzo[b][1,4]oxazin-7-yl)sulfonyl)-4-(2-((1S,2S or 1R,2R)-2-(2-isopropylphenyl)cyclopentyl)-2,7-diazaspiro[3.5]nonan-7-yl)benzamide] | 1 nM | 1 nM | 4 nM | – | – |
| CC(C)c1ccccc1[C@@H]1CCCN1C1CC2(CCN(c3ccc(C(=O)NS(=O)(=O)c4cc5c(c([N+](=O)[O-])c4)N[C@@H]([C@H]4CC[C@](C)(O)CC4)CO5)c(Oc4cc5cc[nH]c5nc4OC[C@H]4COCCN4)c3)CC2)C1 (single isomer, unassigned) [Example D-216, N-(((S)-3-((1r,4S)-4-hydroxy-4-methylcyclohexyl)-5-nitro-3,4-dihydro-2H-benzo[b][1,4]oxazin-7-yl)sulfonyl)-4-(2-((R or S)-2-(2-isopropylphenyl)pyrrolidin-1-yl)-7-azaspiro[3.5]nonan-7-yl)-2-((6-(((R)-morpholin-3-yl)methoxy)-1H-pyrrolo[2,3-b]pyridin-5-yl)oxy)benzamide] | 1 nM | 1 nM | 1 nM | – | – |
| CC(C)c1ccccc1[C@@H]1CCCN1C1CC2(CCN(c3ccc(C(=O)NS(=O)(=O)c4cc5c(c([N+](=O)[O-])c4)N[C@@H]([C@H]4CC[C@](C)(O)CC4)CO5)c(Oc4cc5cc[nH]c5nc4OCCN4CCC4)c3)CC2)C1 (single isomer, unassigned) [Example D-61, 2-((6-(2-(azetidin-l-yl)ethoxy)-1H-pyrrolo[2,3-b]pyridin-5-yl)oxy)-N-(((S)-3-((1r,4S)-4-hydroxy-4-methylcyclohexyl)-5-nitro-3,4-dihydro-2H-benzo[b][1,4]oxazin-7-yl)sulfonyl)-4-(2-((R or S)-2-(2-isopropylphenyl)pyrrolidin-1-yl)-7-azaspiro[3.5]nonan-7-yl)benzamide] | 11 nM | 1 nM | 1 nM | – | – |
| CC(C)c1ccccc1[C@@H]1CCC[C@@H]1N1CC2(CCN(c3ccc(C(=O)NS(=O)(=O)c4cnc(NC[C@H]5CC[C@](C)(O)CC5)c([N+](=O)[O-])c4)c(Oc4cc5c(F)c[nH]c5nc4Cl)c3)CC2)C1 (single isomer, unassigned) [Example A-151, 2-((6-chloro-3-fluoro-1H-pyrrolo[2,3-b]pyridin-5-yl)oxy)-N-((6-((((1r,4r)-4-hydroxy-4-methylcyclohexyl)methyl)amino)-5-nitropyridin-3-yl)sulfonyl)-4-(2-((1S,2S or 1R,2R)-2-(2-isopropylphenyl)cyclo-pentyl)-2,7-diazaspiro[3.5]nonan-7-yl)_ benzamide] | 1 nM | 1 nM | 3 nM | – | – |
| CC(C)c1ccccc1[C@@H]1CCCN1C1CC2(CCN(c3ccc(C(=O)NS(=O)(=O)c4cc5c(c([N+](=O)[O-])c4)N[C@@H]([C@H]4CC[C@](C)(O)CC4)CO5)c(Oc4cc5c(F)c[nH]c5nc4OC4CCN(C)CC4)c3)CC2)C1 (single isomer, unassigned) [Example D-286, 2-((3-fluoro-6-((1-methylpiperidin-4-yl)oxy)-1H-pyrrolo[2,3-b]pyridin-5-yl)oxy)-N-(((S)-3-((1r,4S)-4-hydroxy-4-methylcyclohexyl)-5-nitro-3,4-dihydro-2H-benzo[b] [1,4]oxazin-7-yl)sulfonyl)-4-(2-((R or S)-2-(2-isopropylphenyl)pyrrolidin-1-yl)-7-azaspiro[3.5]nonan-7-yl)benzamide] | 1 nM | 1 nM | 1 nM | – | – |
| CC(C)c1ccccc1[C@@H]1CCC[C@@H]1N1CC2(CCN(c3ccc(C(=O)NS(=O)(=O)c4ccc(NC[C@H]5CC[C@](C)(O)CC5)c([N+](=O)[O-])c4)c(Oc4cnc5[nH]cc(F)c5c4)c3)CC2)C1 (single isomer, unassigned) [Example D-34b, 2-((3-fluoro-1H-pyrrolo[2,3-b]pyridin-5-yl)oxy)-N-((4-((((1r,4r)-4-hydroxy-4-methylcyclohexyl)methyl)amino)-3-nitrophenyl)sulfonyl)-4-(2-((1S,2S or 1R,2R)-2-(2-isopropylphenyl)cyclopentyl)-2,7-diazaspiro[3.5]nonan-7-yl)benzamide] | 1 nM | – | – | 1 nM | 7 nM |
| CC(C)c1ccccc1[C@@H]1CCCN1C1CC2(CCN(c3ccc(C(=O)NS(=O)(=O)c4cc5c(c([N+](=O)[O-])c4)N[C@@H]([C@H]4CC[C@](C)(O)CC4)CO5)c(Oc4cc5cc[nH]c5nc4OC4CCN(C)CC4)c3)CC2)C1 (single isomer, unassigned) [Example D-229, N-(((S)-3-((1r,4S)-4-hydroxy-4-methylcyclohexyl)-5-nitro-3,4-dihydro-2H-benzo[b][1,4]oxazin-7-yl)sulfonyl)-4-(2-((R or S)-2-(2-isopropylphenyl)pyrrolidin-1-yl)-7-azaspiro[3.5]nonan-7-yl)-2-((6-((1-methylpiperidin-4-yl)oxy)-1H-pyrrolo[2,3-b]pyridin-5-yl)oxy)benzamide] | 1 nM | 1 nM | 1 nM | – | – |
| CC(C)c1ccccc1[C@@H]1CCCN1C1CC2(CCN(c3ccc(C(=O)NS(=O)(=O)c4cc5c(c([N+](=O)[O-])c4)N[C@@H]([C@H]4CC[C@](C)(O)CC4)CO5)c(Oc4cc5cc[nH]c5nc4OCCN(C)C)c3)CC2)C1 (single isomer, unassigned) [Example D-60, 2-((6-(2-(dimethylamino)ethoxy)-1H-pyrrolo[2,3-b]pyridin-5-yl)oxy)-N-(((S)-3-((1r,4S)-4-hydroxy-4-methylcyclohexyl)-5-nitro-3,4-dihydro-2H-benzo[b][1,4]oxazin-7-yl)sulfonyl)-4-(2-((R or S)-2-(2-isopropylphenyl)pyrrolidin-1-yl)-7-azaspiro[3.5]nonan-7-yl)benzamide] | 1 nM | 1 nM | 1 nM | – | – |
| CC(C)c1ccccc1[C@@H]1CCCN1C1CC2(CCN(c3ccc(C(=O)NS(=O)(=O)c4cc5c(c([N+](=O)[O-])c4)N[C@@H]([C@H]4CC[C@](C)(O)CC4)CO5)c(Oc4cc5cc[nH]c5nc4O[C@@H]4C[C@@H](CO)N(C)C4)c3)CC2)C1 (single isomer, unassigned) [Example D-250, N-(((S)-3-((1r,4S)-4-hydroxy-4-methylcyclohexyl)-5-nitro-3,4-dihydro-2H-benzo[b][1,4]oxazin-7-yl)sulfonyl)-2-((6-(((3R,5S)-5-(hydroxymethyl)-1-methylpyrrolidin-3-yl)oxy)-1H-pyrrolo[2,3-b]pyridin-5-yl)oxy)-4-(2-((R or S)-2-(2-isopropylphenyl)pyrrolidin-1-yl)-7-azaspiro[3.5]nonan-7-yl)benzamide] | 1 nM | 1 nM | 1 nM | – | – |
| CC(C)c1ccccc1[C@@H]1CCCN1C1CC2(CCN(c3ccc(C(=O)NS(=O)(=O)c4cc5c(c([N+](=O)[O-])c4)N[C@@H]([C@H]4CC[C@](C)(O)CC4)CO5)c(Oc4cc5cc[nH]c5nc4OC[C@H]4CCCN4C)c3)CC2)C1 (single isomer, unassigned) [Example D-130, N-(((S)-3-((1r,4S)-4-hydroxy-4-methylcyclohexyl)-5-nitro-3,4-dihydro-2H-benzo[b][1,4]oxazin-7-yl)sulfonyl)-4-(2-((R or S)-2-(2-isopropylphenyl)pyrrolidin-1-yl)-7-azaspiro[3.5]nonan-7-yl)-2-((6-(((R)-1-methylpyrrolidin-2-yl)methoxy)-1H-pyrrolo[2,3-b]pyridin-5-yl)oxy)benzamide] | 1 nM | 1 nM | 1 nM | – | – |
